# Data published in patent publication US9822114B2, “Tricyclic oxazolidinone antibiotic compounds” (Idorsia Pharmaceuticals Ltd, priority 2008, dated 2017).
# Tested on: M. catarrhalis A894
# Test: Minimal inhibitory concentration (MIC), microdilution method in cation-adjusted Mueller-Hinton Broth (CLSI M7-A7)
# Format: cell-based
# Settings: strain A894; for MIC: Moraxella catarrhalis
# Procedure: Minimal inhibitory concentrations (MICs; mg/1) were determined in cation-adjusted Mueller-Hinton Broth by a microdilution method following the description given in “Methods for Dilution Antimicrobial Susceptibility Tests for Bacteria that Grow Aerobically”, Approved standard, 7th ed., Clinical and Laboratory Standards Institute (CLSI) Document M7-A7, Wayne, Pa., USA, 2006.
Compound,MIC [µg/mL],MIC for M. catarrhalis A894
"O=C1COc2ccc(N3C[C@H](CCNCC4CN5C(=O)CCc6ccc(F)c4c65)OC3=O)cc2N1 (mixture of isomers) [Example 187, (RS)-9-fluoro-1-({2-[(S)-2-oxo-3-(3-oxo-3,4-dihydro-2H-benzo[1,4]oxazin-6-yl)-oxazolidin-5-yl]-ethylamino}-methyl)-1,2,5,6-tetrahydro-pyrrolo[3,2,1-ij]quinolin-4-one]",≤ 0.031,–
"O=C1O[C@H](CCNC[C@@H]2Cn3c(=O)ccc4ccc(F)c2c43)CN1c1cc2c(cn1)OCCO2 (racemic) [Example 42, (RS)-1-({2-[(RS)-3-(2,3-dihydro-[1,4]dioxino[2,3-c]pyridin-7-yl)-2-oxo-oxazolidin-5-yl]-ethylamino}-methyl)-9-fluoro-1,2-dihydro-pyrrolo[3,2,1-ij]quinolin-4-one]",2,–
"O=C1CSc2ccc(N3C[C@H](CCCN[C@H]4Cn5c(=O)ccc6ccc(F)c4c65)OC3=O)nc2N1 [Example 195, (R)-9-fluoro-1-{3-[(S)-2-oxo-3-(3-oxo-3,4-dihydro-2H-pyrido[3,2-b][1,4]thiazin-6-yl)-oxazolidin-5-yl]-propylamino}-1,2-dihydro-pyrrolo[3,2,1-ij]quinolin-4-one]",≤ 0.031,–
"(1R,2S)-2-methyl-1-{3-[(S)-2-oxo-3-(3-oxo-3,4-dihydro-2H-benzo[1,4]thiazin-6-yl)-oxazolidin-5-yl]-propylamino}-1,2-dihydro-pyrrolo[3,2,1-ij]quinolin-4-one and (1S,2R)-2-methyl-1-{3-[(S)-2-oxo-3-(3-oxo-3,4-dihydro-2H-benzo[1,4]thiazin-6-yl)-oxazolidin-5-yl]-propylamino}-1,2-dihydro-pyrrolo[3,2,1-ij]quinolin-4-one [Example 167]",–,≦0.031 mg/l
"O=C1COc2ccc(N3C[C@@H](CCCN[C@@H]4Cn5c(=O)ccc6nccc4c65)OC3=O)cc2N1 [Example 40, (S)-4-{3-[(R)-2-oxo-3-(3-oxo-3,4-dihydro-2H-benzo[1,4]oxazin-6-yl)-oxazolidin-5-yl]-propylamino}-4,5-dihydro-pyrrolo[3,2,1-de][1,5]naphthyridin-7-one]",0.125,–
"O=C1CSc2ccc(N3C[C@@H](CCCN[C@H]4Cn5c(=O)ccc6ccc(F)c4c65)OC3=O)cc2N1 [Example 127, (R)-9-fluoro-1-{3-[(R)-2-oxo-3-(3-oxo-3,4-dihydro-2H-benzo[1,4]thiazin-6-yl)-oxazolidin-5-yl]-propylamino}-1,2-dihydro-pyrrolo[3,2,1-ij]quinolin-4-one]",≤ 0.031,–
"CCCc1ccc(N2C[C@@H](CCNCC3Cn4c(=O)ccc5ccc(F)c3c54)OC2=O)cc1 (mixture of isomers) [Example 45, (RS)-9-fluoro-1-({2-[(R)-2-oxo-3-(4-propyl-phenyl)-oxazolidin-5-yl]-ethylamino}-methyl)-1,2-dihydro-pyrrolo[3,2,1-ij]quinolin-4-one]",0.063,–
"O=C1CSc2ccc(N3C[C@H](CCN(CCCO)CC4Cn5c(=O)ccc6ccc(F)c4c65)OC3=O)cc2N1 (mixture of isomers) [Example 90, (RS)-9-fluoro-1-[((3-hydroxy-propyl)-{2-[(S)-2-oxo-3-(3-oxo-3,4-dihydro-2H-benzo[1,4]thiazin-6-yl)-oxazolidin-5-yl]-ethyl}-amino)-methyl]-1,2-dihydro-pyrrolo[3,2,1-ij]quinolin-4-one]",≤ 0.031,–
"O=C1CSc2ccc(N3C[C@H](CCCN[C@@H]4Cn5c(=O)ccc6ncc(F)c4c65)OC3=O)nc2N1 [Example 150, (S)-3-fluoro-4-{3-[(S)-2-oxo-3-(3-oxo-3,4-dihydro-2H-pyrido[3,2-b][1,4]thiazin-6-yl)-oxazolidin-5-yl]-propylamino}-4,5-dihydro-pyrrolo[3,2,1-de][1,5]naphthyridin-7-one]",≤ 0.031,–
"O=C1CSc2ccc(N3C[C@@H](CCCN[C@@H]4Cn5c(=O)ccc6ccc(F)c4c65)OC3=O)nc2N1 [Example 192, (S)-9-fluoro-1-{3-[(R)-2-oxo-3-(3-oxo-3,4-dihydro-2H-pyrido[3,2-b][1,4]thiazin-6-yl)-oxazolidin-5-yl]-propylamino}-1,2-dihydro-pyrrolo[3,2,1-ij]quinolin-4-one]",≤ 0.031,–
"O=C1CSc2ccc(N3C[C@@H](CCCN[C@@H]4Cn5c(=O)ccc6cccc4c65)OC3=O)cc2N1 [Example 72, (S)-1-{3-[(R)-2-oxo-3-(3-oxo-3,4-dihydro-2H-benzo[1,4]thiazin-6-yl)-oxazolidin-5-yl]-propylamino}-1,2-dihydro-pyrrolo[3,2,1-ij]quinolin-4-one]",≤ 0.031,–
"O=C1COc2ccc(N3C[C@@H](CCCN[C@@H]4Cn5c(=O)ccc6cccc4c65)OC3=O)nc2N1 [Example 74, (S)-1-{3-[(R)-2-oxo-3-(3-oxo-3,4-dihydro-2H-pyrido[3,2-b][1,4]oxazin-6-yl)-oxazolidin-5-yl]-propylamino}-1,2-dihydro-pyrrolo[3,2,1-ij]quinolin-4-one]",≤ 0.031,–
"Cc1ccc(N2C[C@@H](CCNC[C@@H]3Cn4c(=O)ccc5ccc(F)c3c54)OC2=O)cc1F (racemic) [Example 6, (1RS)-9-fluoro-1-({2-[(RS)-3-(3-fluoro-4-methyl-phenyl)-2-oxo-oxazolidin-5-yl]-ethylamino}-methyl)-1,2-dihydro-pyrrolo[3,2,1-U]quinolin-4-one]",–,0.125 µg/mL
"O=C1CSc2ccc(N3C[C@@H](CCCN[C@@H]4CN5C(=O)CNc6cccc4c65)OC3=O)cc2N1 [Example 114, (S)-6-{3-[(R)-2-oxo-3-(3-oxo-3,4-dihydro-2H-benzo[1,4]thiazin-6-yl)-oxazolidin-5-yl]-propylamino}-1,2,5,6-tetrahydro-pyrrolo[1,2,3-de]quinoxalin-3-one]",≤ 0.031,–
"O=C1CSc2ccc(N3C[C@H](CCCN[C@H]4Cn5c(=O)ccc6cccc4c65)OC3=O)cc2N1 [Example 133, (R)-1-{3-[(S)-2-oxo-3-(3-oxo-3,4-dihydro-2H-benzo[1,4]thiazin-6-yl)-oxazolidin-5-yl]-propylamino}-1,2-dihydro-pyrrolo[3,2,1-ij]quinolin-4-one]",≤ 0.031,–
"O=C1CSc2ccc(N3C[C@@H](CNCC4Cn5c(=O)ccc6ncc(F)c4c65)OC3=O)cc2N1 (mixture of isomers) [Example 100, (RS)-3-fluoro-4-({[(R)-2-oxo-3-(3-oxo-3,4-dihydro-2H-benzo[1,4]thiazin-6-yl)-oxazolidin-5-ylmethyl]-amino}-methyl)-4,5-dihydro-pyrrolo[3,2,1-de][1,5]naphthyridin-7-one]",0.031,–
"O=C1CSc2ccc(N3C[C@H](CCCN[C@H]4Cn5c(=O)ccc6ccc(F)c4c65)OC3=O)cc2N1 [Example 129, (R)-9-fluoro-1-{3-[(S)-2-oxo-3-(3-oxo-3,4-dihydro-2H-benzo[1,4]thiazin-6-yl)-oxazolidin-5-yl]-propylamino}-1,2-dihydro-pyrrolo[3,2,1-ij]quinolin-4-one]",≤ 0.031,–
"(1R,2R)-4-oxo-1-{3-[(S)-2-oxo-3-(3-oxo-3,4-dihydro-2H-benzo[1,4]thiazin-6-yl)-oxazolidin-5-yl]-propylamino}-1,2-dihydro-4H-pyrrolo[3,2,1-ij]quinoline-2-carboxylic acid methyl ester and (1S,2S)-4-oxo-1-{3-[(S)-2-oxo-3-(3-oxo-3,4-dihydro-2H-benzo[1,4]thiazin-6-yl)-oxazolidin-5-yl]-propylamino}-1,2-dihydro-4H-pyrrolo[3,2,1-ij]quinoline-2-carboxylic acid methyl ester [Example 162]",–,0.25 µg/mL
"O=C1CSc2ccc(N3C[C@@H](CCCNC4CN5C(=O)CNc6ccc(F)c4c65)OC3=O)nc2N1 (mixture of isomers) [Example 200, (RS)-7-fluoro-6-{3-[(R)-2-oxo-3-(3-oxo-3,4-dihydro-2H-pyrido[3,2-b][1,4]thiazin-6-yl)-oxazolidin-5-yl]-propylamino}-1,2,5,6-tetrahydro-pyrrolo[1,2,3-de]quinoxalin-3-one]",≤ 0.031,–
"O=C1CSc2ccc(N3C[C@H](CCNCC4(O)Cn5c(=O)ccc6ccc(F)c4c65)OC3=O)cc2N1 (mixture of isomers) [Example 174, (RS)-9-fluoro-1-hydroxy-1-({2-[(S)-2-oxo-3-(3-oxo-3,4-dihydro-2H-benzo[1,4]thiazin-6-yl)-oxazolidin-5-yl]-ethylamino}-methyl)-1,2-dihydro-pyrrolo[3,2,1-ij]quinolin-4-one]",≤ 0.031,–
"O=C1CSc2ccc(N3C[C@H](CNCCC4CN5C(=O)CCc6ccc(F)c4c65)OC3=O)cc2N1 (mixture of isomers) [Example 22, (1RS)-9-fluoro-1-(2-{[(S)-2-oxo-3-(3-oxo-3,4-dihydro-2H-benzo[1,4]thiazin-6-yl)-oxazolidin-5-ylmethyl]-amino}-ethyl)-1,2,5,6-tetrahydro-pyrrolo[3,2,1-ij]quinolin-4-one]",≤ 0.031,–
"O=C1CSc2ccc(N3C[C@@H](CCCNC4Cn5c(=O)ccc6ncc(F)c4c65)OC3=O)cc2N1 (mixture of isomers) [Example 94, (RS)-3-fluoro-4-{3-[(R)-2-oxo-3-(3-oxo-3,4-dihydro-2H-benzo[1,4]thiazin-6-yl)-oxazolidin-5-yl]-propylamino}-4,5-dihydro-pyrrolo[3,2,1-de][1,5]naphthyridin-7-one]",≤ 0.031,–
"CCOc1ccc(N2C[C@@H](CCNCC3Cn4c(=O)ccc5ccc(F)c3c54)OC2=O)cc1 (mixture of isomers) [Example 44, (RS)-1-({2-[(R)-3-(4-ethoxy-phenyl)-2-oxo-oxazolidin-5-yl]-ethylamino}-methyl)-9-fluoro-1,2-dihydro-pyrrolo[3,2,1-ij]quinolin-4-one]",0.125,–
"O=C1CSc2ccc(N3C[C@H](CCCN[C@@H]4CN5C(=O)CNc6ccc(F)c4c65)OC3=O)cc2N1 [Example 160, (S)-7-fluoro-6-{3-[(S)-2-oxo-3-(3-oxo-3,4-dihydro-2H-benzo[1,4]thiazin-6-yl)-oxazolidin-5-yl]-propylamino}-1,2,5,6-tetrahydro-pyrrolo[1,2,3-de]quinoxalin-3-one]",≤ 0.031,–
